Reference: patent US9327009B2, “Peptide inhibitors as novel anti-HIV therapeutics” (Council of Scientific & Industrial Research, priority 2012, dated 2016)

Molecular target: Nef-ASK1 interaction (UniProt P03404+Q99683)
Conditions: ATCC CRL-1573 cells co-transfected with Nef-ASK1g, 48 hours; ASK-1 alone 43.15, ASK-1 + Nef (background) 22.15, control 11.0
Description: HEK 293 cells were grown in Minimal Essential medium (low glucose, Sigma) supplemented with 10% fetal bovine serum, penicillin (100 units/ml), streptomycin (100 μg/ml) and Gentamycin (50 μg/ml) at 37° C. with 5% CO2. 1×10^5 cells were seeded per well in twenty four well plates, one day before transfection. Using commercially available ExGen 500 (fermentas) transfection reagent, all the required endotoxin free plasmid constructs were co-transfected into HEK 293 cells. 0.75 microgram of each plasmid and 5.0 micro liters per well ExGen 500 reagent were used. 48 h post transfection the cells were harvested and Luciferase activity was monitored using the Dual-Luciferase® Reporter assay kit (Promega). The data for basal control were used for the conversion of Luciferase activity to fold activation. As a positive control, the protein-protein interaction vectors pACTMyoD and pBIND-ID encoding the MyoD and ID control proteins, provided with the kit were used.
The ASK1g, h, i,j fragments alone and with Nef were transfected in ATCC CRL-1573™ cells. The transfected cells were cultured for 48 hours and were labeled with AnnexinV and PI staining for analyzing aspoptosis.
Inhibitors were designed from the crystal structure of Nef solved in our laboratory (Pankaj et al., 2011) The inhibitors were cultured with cells transfected will Nef, ASK1g and co-transfected with Nef-ASK1g. The cells after 48 hours were analysed for apoptosis using annexin V and PI staining.

| Sequence | % of Annexin V cells means apoptotic cells [%] |
| --- | --- |
| PVRPQVPLRP [Peptide-5] | 22.45 |
| LHGMEDPE [Peptide-4] | 23.0 |
| TPGPGVRYP [Peptide-1] | 22.45 |
| GENNCLLH [Peptide-2] | 24.96 |
| DEVGEANN [Peptide-3] | 40.37 |
